Reference: ChEMBL document CHEMBL5113453, “Design, synthesis, and biological evaluation of a new series of pyrazole derivatives: Discovery of potent and selective JNK3 kinase inhibitors” (Bioorg Med Chem, 2022)

How the values were obtained:
[1] = target: T1, Mitogen-activated protein kinase 10 (Homo sapiens, UniProt P53779); assay: Inhibition of JNK3 (unknown origin) at 1 uM relative to control
[2] = target: T1, Mitogen-activated protein kinase 10; assay: Inhibition of JNK3 (unknown origin)
[3] = tested on: HL-60(TB); assay: Antiproliferative activity against human HL-60(TB) cells measured after 48 hrs by SRB assay; format: functional, cell-based; conditions: HL-60, time 48 hrs
[4] = tested on: ACHN; assay: Antiproliferative activity against human ACHN cells measured after 48 hrs by SRB assay; format: functional, cell-based; conditions: time 48 hrs
[5] = tested on: TK-10; assay: Antiproliferative activity against human TK-10 cells measured after 48 hrs by SRB assay; format: functional, cell-based; conditions: TK-10, time 48 hrs
[6] = tested on: MCF7; assay: Antiproliferative activity against human MCF7 cells measured after 48 hrs by SRB assay; format: functional, cell-based; conditions: MCF7, time 48 hrs
[7] = tested on: WI-38; assay: Antiproliferative activity against human WI-38 cells measured by MTT assay; format: functional, cell-based
[8] = tested on: MOLT-4; assay: Antiproliferative activity against human MOLT-4 cells measured after 48 hrs by SRB assay; format: functional, cell-based; conditions: MOLT-4, time 48 hrs
[9] = tested on: HOP-92; assay: Antiproliferative activity against human HOP-92 cells measured after 48 hrs by SRB assay; format: functional, cell-based; conditions: HOP-92, time 48 hrs
[10] = tested on: UACC-257; assay: Antiproliferative activity against human UACC-257 cells measured after 48 hrs by SRB assay; format: functional, cell-based; conditions: UACC-257, time 48 hrs
[11] = tested on: NCI/ADR-RES; assay: Antiproliferative activity against human NCI-ADR-RES cells measured after 48 hrs by SRB assay; format: functional, cell-based; conditions: time 48 hrs
[12] = tested on: IGROV-1; assay: Antiproliferative activity against human IGROV-1 cells measured after 48 hrs by SRB assay; format: functional, cell-based; conditions: IGROV-1, time 48 hrs
[13] = tested on: NCI-H23; assay: Antiproliferative activity against human NCI-H23 cells measured after 48 hrs by SRB assay; format: functional, cell-based; conditions: NCI-H23, time 48 hrs
[14] = target: Voltage-gated inwardly rectifying potassium channel KCNH2 (Homo sapiens, UniProt Q12809); assay: Inhibition of hERG measured by fluorescence polarization assay
[15] = organism: Homo sapiens; assay: RatioIC50 for inhibition of […] (unknown origin)
[16] = target: T2, Platelet-derived growth factor receptor alpha (Homo sapiens, UniProt P16234); assay: Inhibition of PDGFRalpha (unknown origin) at 1 uM relative to control
[17] = tested on: HepG2; assay: Antiproliferative activity against human HepG2 cells measured by MTT assay; format: functional, cell-based
[18] = target: Cytochrome P450 2D6 (Homo sapiens, UniProt P10635); assay: Inhibition of CYP2D6 (unknown origin) using EOMCC as a substrate; format: ADME
[19] = target: T1, Mitogen-activated protein kinase 10; assay: Inhibition of JNK3 in human HEK293 cells transfected with JNK3-NanoLuc fusion vector measured after 1 hr by NanoBRET assay; format: cell-based
[20] = target: Cytochrome P450 3A4 (Homo sapiens, UniProt P08684); assay: Inhibition of CYP3A4 (unknown origin) using BOMCC as a substrate; format: ADME
[21] = tested on: Serine/threonine-protein kinase B-raf (Homo sapiens), P15056 [V600E]; assay: Inhibition of B-RAF V600E mutant (unknown origin) at 1 uM relative to control
[22] = target: T2, Platelet-derived growth factor receptor alpha; assay: Inhibition of PDGFRalpha (unknown origin)

T1 sequence (P53779 whole entry): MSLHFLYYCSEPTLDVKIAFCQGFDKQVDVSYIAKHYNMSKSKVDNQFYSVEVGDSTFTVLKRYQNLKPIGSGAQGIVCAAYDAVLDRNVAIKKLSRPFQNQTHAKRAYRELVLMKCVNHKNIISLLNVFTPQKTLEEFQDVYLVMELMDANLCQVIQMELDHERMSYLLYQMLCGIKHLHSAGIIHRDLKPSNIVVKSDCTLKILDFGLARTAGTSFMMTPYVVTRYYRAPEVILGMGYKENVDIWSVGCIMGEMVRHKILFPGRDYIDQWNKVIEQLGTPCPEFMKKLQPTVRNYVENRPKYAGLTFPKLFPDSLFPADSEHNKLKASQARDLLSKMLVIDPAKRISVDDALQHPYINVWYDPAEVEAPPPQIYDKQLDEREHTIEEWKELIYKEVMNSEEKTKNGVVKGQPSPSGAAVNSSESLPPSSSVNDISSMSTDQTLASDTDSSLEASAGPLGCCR
T2 sequence (P16234 whole entry): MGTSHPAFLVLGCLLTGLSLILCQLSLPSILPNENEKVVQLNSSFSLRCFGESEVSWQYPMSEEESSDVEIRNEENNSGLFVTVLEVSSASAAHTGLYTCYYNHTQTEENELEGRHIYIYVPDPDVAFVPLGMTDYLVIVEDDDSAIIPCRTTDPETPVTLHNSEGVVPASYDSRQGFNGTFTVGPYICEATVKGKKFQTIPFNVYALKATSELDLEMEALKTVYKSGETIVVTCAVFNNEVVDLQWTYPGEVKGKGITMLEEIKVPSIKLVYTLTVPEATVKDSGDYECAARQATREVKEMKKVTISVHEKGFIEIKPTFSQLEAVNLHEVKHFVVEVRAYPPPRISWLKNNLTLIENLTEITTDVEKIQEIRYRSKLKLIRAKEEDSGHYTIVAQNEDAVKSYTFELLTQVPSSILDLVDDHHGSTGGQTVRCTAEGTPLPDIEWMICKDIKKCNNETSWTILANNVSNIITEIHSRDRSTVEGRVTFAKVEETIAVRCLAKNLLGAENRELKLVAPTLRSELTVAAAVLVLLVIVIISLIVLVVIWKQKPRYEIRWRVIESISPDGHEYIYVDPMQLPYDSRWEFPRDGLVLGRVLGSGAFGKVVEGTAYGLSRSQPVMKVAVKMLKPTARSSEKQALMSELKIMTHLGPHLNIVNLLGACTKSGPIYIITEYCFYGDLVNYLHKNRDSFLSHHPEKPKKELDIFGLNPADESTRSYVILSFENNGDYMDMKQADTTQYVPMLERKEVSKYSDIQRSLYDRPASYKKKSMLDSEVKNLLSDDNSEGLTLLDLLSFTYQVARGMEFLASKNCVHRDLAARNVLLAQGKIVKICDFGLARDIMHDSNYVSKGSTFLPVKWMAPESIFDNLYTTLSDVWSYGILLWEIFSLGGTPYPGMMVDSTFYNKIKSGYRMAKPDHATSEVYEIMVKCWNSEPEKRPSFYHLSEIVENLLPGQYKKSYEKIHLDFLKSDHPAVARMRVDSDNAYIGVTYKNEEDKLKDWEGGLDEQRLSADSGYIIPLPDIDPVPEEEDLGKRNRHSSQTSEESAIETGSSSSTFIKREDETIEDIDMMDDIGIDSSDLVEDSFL
Cytochrome P450 3A4, sequence (P08684 whole entry): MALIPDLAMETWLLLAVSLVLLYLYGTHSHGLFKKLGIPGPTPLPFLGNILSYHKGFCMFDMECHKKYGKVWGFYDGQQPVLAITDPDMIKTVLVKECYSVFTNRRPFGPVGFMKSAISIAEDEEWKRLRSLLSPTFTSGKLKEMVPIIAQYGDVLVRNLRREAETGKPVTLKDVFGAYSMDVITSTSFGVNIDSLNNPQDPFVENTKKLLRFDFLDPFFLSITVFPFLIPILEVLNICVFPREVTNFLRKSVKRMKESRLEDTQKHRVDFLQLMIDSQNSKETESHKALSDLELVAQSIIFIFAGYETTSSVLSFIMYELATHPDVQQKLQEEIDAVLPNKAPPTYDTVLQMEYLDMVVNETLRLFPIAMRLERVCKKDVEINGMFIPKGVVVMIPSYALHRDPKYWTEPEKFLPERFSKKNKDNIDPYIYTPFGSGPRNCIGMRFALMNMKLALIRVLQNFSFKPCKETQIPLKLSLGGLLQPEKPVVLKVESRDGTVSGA
Serine/threonine-protein kinase B-raf (Homo sapiens), P15056 [V600E], sequence (P15056 whole entry V600E): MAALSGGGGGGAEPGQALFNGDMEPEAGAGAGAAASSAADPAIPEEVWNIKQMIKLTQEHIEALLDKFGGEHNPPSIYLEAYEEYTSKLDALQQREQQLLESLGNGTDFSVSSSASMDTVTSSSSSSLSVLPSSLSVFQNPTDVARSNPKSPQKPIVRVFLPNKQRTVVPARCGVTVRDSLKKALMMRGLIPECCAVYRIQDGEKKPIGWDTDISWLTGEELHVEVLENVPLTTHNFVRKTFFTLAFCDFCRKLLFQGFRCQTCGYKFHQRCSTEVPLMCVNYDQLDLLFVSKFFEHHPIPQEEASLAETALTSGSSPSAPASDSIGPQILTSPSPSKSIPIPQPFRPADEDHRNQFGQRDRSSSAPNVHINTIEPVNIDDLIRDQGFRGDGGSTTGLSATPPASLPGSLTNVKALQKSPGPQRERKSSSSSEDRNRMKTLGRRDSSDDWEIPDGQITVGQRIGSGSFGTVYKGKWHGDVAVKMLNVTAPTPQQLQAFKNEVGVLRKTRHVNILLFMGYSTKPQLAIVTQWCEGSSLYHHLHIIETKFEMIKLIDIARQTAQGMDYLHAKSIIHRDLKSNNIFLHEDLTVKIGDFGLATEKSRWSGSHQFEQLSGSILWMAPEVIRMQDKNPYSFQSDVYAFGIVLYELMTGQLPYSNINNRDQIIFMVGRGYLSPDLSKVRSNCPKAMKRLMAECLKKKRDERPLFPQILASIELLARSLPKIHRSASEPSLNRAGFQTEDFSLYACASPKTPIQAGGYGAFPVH
Cytochrome P450 2D6, sequence (P10635 whole entry, the tested form may be a part): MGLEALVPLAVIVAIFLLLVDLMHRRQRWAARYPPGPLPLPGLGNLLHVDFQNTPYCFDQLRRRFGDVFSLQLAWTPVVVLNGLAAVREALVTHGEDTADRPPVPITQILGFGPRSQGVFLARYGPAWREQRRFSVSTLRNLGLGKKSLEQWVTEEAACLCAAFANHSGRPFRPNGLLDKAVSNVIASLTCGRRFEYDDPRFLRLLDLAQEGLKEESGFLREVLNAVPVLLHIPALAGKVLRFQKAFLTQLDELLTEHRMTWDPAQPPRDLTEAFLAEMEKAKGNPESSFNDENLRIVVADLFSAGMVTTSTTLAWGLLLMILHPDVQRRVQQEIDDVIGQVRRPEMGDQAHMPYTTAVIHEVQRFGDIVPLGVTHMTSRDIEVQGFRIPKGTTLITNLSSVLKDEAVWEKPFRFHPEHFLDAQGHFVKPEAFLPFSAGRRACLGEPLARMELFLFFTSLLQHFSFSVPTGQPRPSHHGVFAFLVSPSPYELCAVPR
Voltage-gated inwardly rectifying potassium channel KCNH2, sequence (Q12809 whole entry): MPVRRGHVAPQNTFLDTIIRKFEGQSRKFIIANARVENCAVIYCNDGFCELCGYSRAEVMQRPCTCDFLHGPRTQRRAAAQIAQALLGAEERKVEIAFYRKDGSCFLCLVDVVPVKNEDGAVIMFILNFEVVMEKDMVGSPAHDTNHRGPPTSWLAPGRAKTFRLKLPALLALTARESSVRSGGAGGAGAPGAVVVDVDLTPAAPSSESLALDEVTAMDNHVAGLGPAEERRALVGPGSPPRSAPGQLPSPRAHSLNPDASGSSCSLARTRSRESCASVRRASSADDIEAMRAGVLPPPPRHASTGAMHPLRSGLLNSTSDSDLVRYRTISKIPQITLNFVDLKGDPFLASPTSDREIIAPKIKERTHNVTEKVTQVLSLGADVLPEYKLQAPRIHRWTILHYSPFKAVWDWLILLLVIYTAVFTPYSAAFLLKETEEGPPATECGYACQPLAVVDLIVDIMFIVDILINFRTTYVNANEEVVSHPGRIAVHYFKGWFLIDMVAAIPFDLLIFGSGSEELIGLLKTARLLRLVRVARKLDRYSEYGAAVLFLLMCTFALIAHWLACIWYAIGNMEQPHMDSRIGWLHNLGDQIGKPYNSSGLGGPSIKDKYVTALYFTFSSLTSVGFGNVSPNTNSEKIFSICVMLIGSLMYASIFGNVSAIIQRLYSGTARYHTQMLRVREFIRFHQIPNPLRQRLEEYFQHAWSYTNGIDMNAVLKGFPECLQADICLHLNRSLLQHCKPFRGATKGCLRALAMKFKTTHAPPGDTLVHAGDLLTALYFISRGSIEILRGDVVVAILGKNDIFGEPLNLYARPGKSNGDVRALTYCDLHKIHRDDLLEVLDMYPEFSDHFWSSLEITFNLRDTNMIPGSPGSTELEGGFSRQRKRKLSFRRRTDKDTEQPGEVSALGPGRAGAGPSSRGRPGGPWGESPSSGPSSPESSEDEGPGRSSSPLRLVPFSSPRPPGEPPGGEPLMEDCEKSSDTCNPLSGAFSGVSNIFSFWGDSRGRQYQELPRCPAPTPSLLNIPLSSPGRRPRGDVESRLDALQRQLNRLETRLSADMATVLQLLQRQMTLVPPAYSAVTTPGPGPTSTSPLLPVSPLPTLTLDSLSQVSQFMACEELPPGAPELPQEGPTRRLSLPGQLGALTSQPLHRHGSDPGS

| Compound | inhibition [1] | IC50 [2] | further results |
| --- | --- | --- | --- |
| O=C(Nc1cc(C(F)(F)F)cc(C(F)(F)F)c1)N1CCN(c2cc(-c3cn(-c4ccccc4)nc3-c3cccc(O)c3)ccn2)CC1 | 1% | > 1 µM | – |
| CNC(=O)c1cc(Oc2ccc(NC(=O)Nc3ccc(Cl)c(C(F)(F)F)c3)cc2)ccn1 [SORAFENIB] | – | – | TGI [3]: 100 µM; TGI [4]: 10 µM; TGI [5]: 10 µM; TGI [6]: 7.94 µM; IC50 [7]: 14.7 µM; TGI [8]: 100 µM; TGI [9]: 5.01 µM; TGI [10]: 5.01 µM; TGI [11]: 7.94 µM; TGI [12]: 10 µM; TGI [13]: 5.01 µM |
| COc1cccc(-c2nn(-c3ccccc3)cc2-c2ccnc(N3CCN(C(=O)Nc4ccc(Cl)c(Cl)c4)CC3)c2)c1 | 4% | > 1 µM | – |
| O=C(NCCCNc1cc(-c2cn(-c3ccccc3)nc2-c2cccc(O)c2)ccn1)Nc1ccc(Cl)c(C(F)(F)F)c1 | 63% | 0.614 µM | – |
| O=C(Nc1ccc(F)cc1)N1CCN(c2cc(-c3cn(-c4ccccc4)nc3-c3cccc(O)c3)ccn2)CC1 | 8% | > 1 µM | – |
| O=C(NCCNc1cc(-c2cn(-c3ccccc3)nc2-c2cccc(O)c2)ccn1)Nc1cccc(C(F)(F)F)c1 | 84% | 0.099 µM | IC50 [14]: > 50 µM; IC50 [7]: 18.5 µM; Ratio IC50 [15]: 10.1; inhibition [16]: 50%; IC50 [17]: 1.56 µM; IC50 [18]: 6.24 µM; IC50 [19]: 3.92 µM; IC50 [20]: 20.5 µM; inhibition [21]: 9%; IC50 [22]: 1 µM |
| COc1cccc(-c2nn(-c3ccccc3)cc2-c2ccnc(N3CCN(C(=O)Nc4ccc(Cl)c(C(F)(F)F)c4)CC3)c2)c1 | 7% | > 1 µM | – |
| O=C(NCCNc1cc(-c2cn(-c3ccccc3)nc2-c2cccc(O)c2)ccn1)Nc1ccc(Cl)c(Cl)c1 | 69% | 0.526 µM | IC50 [7]: 17.4 µM; IC50 [17]: 2.84 µM |
| O=C(NCCNc1cc(-c2cn(-c3ccccc3)nc2-c2cccc(O)c2)ccn1)Nc1cc(C(F)(F)F)cc(C(F)(F)F)c1 | 19% | > 1 µM | – |
| O=C(Nc1ccc(Cl)c(Cl)c1)N1CCN(c2cc(-c3cn(-c4ccccc4)nc3-c3cccc(O)c3)ccn2)CC1 | 3% | > 1 µM | – |
| O=C(NCCNc1cc(-c2cn(-c3ccccc3)nc2-c2cccc(O)c2)ccn1)Nc1ccc(F)cc1 | 83% | 0.189 µM | – |
| COc1cccc(-c2nn(-c3ccccc3)cc2-c2ccnc(N3CCN(C(=O)Nc4ccc(F)cc4)CC3)c2)c1 | 0% | > 1 µM | – |
| O=C(NCCCNc1cc(-c2cn(-c3ccccc3)nc2-c2cccc(O)c2)ccn1)Nc1ccc(Cl)c(Cl)c1 | 13% | > 1 µM | – |
| O=C(NCCNc1cc(-c2cn(-c3ccccc3)nc2-c2cccc(O)c2)ccn1)Nc1ccc(Cl)c(C(F)(F)F)c1 | 38% | > 1 µM | – |
| O=C(NCCCNc1cc(-c2cn(-c3ccccc3)nc2-c2cccc(O)c2)ccn1)Nc1cc(C(F)(F)F)cc(C(F)(F)F)c1 | 0% | > 1 µM | – |
| COc1cccc(-c2nn(-c3ccccc3)cc2-c2ccnc(N3CCN(C(=O)Nc4cccc(C(F)(F)F)c4)CC3)c2)c1 | 10% | > 1 µM | – |
| COc1cccc(-c2nn(-c3ccccc3)cc2-c2ccnc(N3CCN(C(=O)Nc4ccccc4)CC3)c2)c1 | 8% | > 1 µM | – |
| O=C(Nc1ccccc1)N1CCN(c2cc(-c3cn(-c4ccccc4)nc3-c3cccc(O)c3)ccn2)CC1 | 6% | > 1 µM | – |
| O=C(Nc1cccc(C(F)(F)F)c1)N1CCN(c2cc(-c3cn(-c4ccccc4)nc3-c3cccc(O)c3)ccn2)CC1 | 17% | > 1 µM | – |
| COc1cccc(-c2nn(-c3ccccc3)cc2-c2ccnc(N3CCN(C(=O)Nc4cc(C(F)(F)F)cc(C(F)(F)F)c4)CC3)c2)c1 | 9% | > 1 µM | – |
